Consider four compounds from patent US20080207596A1, “Novel compounds 329” (priority 2006, published 2008).

T1 sequence (Q16539 whole entry): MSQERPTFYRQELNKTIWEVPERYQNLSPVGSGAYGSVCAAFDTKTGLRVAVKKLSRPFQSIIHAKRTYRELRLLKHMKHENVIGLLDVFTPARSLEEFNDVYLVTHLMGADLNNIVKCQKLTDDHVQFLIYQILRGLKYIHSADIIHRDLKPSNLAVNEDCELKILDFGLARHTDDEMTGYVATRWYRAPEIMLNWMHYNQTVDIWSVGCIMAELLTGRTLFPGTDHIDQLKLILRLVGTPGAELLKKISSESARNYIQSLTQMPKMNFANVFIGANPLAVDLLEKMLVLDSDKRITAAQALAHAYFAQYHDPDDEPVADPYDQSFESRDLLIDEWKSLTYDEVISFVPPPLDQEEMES

This experiment has as its target T1, human active recombinant p38α-6His tagged (Homo sapiens, UniProt Q16539).
T1 construct: 6His
Put plainly: P38 alpha enzyme assay (AlphaScreen, biotinylated-ATF2 substrate). It counts as biochemical. The note with it: 4 hours pre-incubation at 37° C., 1 mM ATP added. The method, then: Enzyme assays were performed in polypropylene 96 well plates. The following solutions were added to each well; 10 μL of compound dilutions in assay buffer (20 mM HEPES pH 7.4, containing 20 mM magnesium acetate, 0.005% (w/v) Tween-20, 10 mM DTT) containing 1% (v/v) DMSO or assay buffer containing 1% (v/v) DMSO alone, 70 μL of assay buffer containing 36 nM substrate (biotinylated-ATF2) and 10 μL of an appropriate dilution of human active recombinant p38α-6His tagged. Depending on batch of p38, an appropriate dilution was typically a 5 nM solution to give a final enzyme concentration of 0.5 nM. At this stage, background control wells also received 50 μL of AlphaScreen quench buffer (10 mM HEPES pH 7.4 containing 100 mM EDTA, 0.2% (w/v) bovine serum albumin). The plate was covered, pre-incubated for 4 hours at 37° C. and the enzyme reaction initiated by addition of 10 μL 1 mM ATP. After incubation for a further 45 minutes at 37° C., the reaction was stopped by addition of 50 μL quench reagent and 50 μL of the quenched reaction mixture transferred to an opaque, white 96-well plate. Detection reagent, 25 μL of 10 mM HEPES pH 7.4 containing 100 mM EDTA, 0.2% (w/v) bovine serum albumin, 0.3 nM anti phosphoATF2 antibody and 25 μg/mL of AlphaScreen protein A acceptor and donor beads, was added to all wells in a darkened room, the plate sealed and left in the dark for between 5 and 24 hours before AlphaScreen readings were taken using a Perkin Elmer EnVision reader.
On the technique in general: In Alpha technology, singlet oxygen from a donor bead excites a nearby acceptor bead.
As for `Cc1ccc(NC(=O)c2cccc(N3CCCCC3)c2)cc1-n1ccc2ccc(OCCN3CCCC3)cc2c1=O` [Example 1, N-{4-Methyl-3-[1-oxo-7-(2-pyrrolidin-1-ylethoxy)isoquinolin-2(1H)-yl]phenyl}-3-piperidin-1-ylbenzamide], the IC50 (in general, the midpoint of a concentration-inhibition curve) is 10 nM.

`Cc1ccc(NC(=O)c2ccnc(N3CCCC3)c2)cc1-n1ccc2ccc(OCCN3CCCC3)cc2c1=O` [Example 5, N-{4-Methyl-3-[1-oxo-7-(2-pyrrolidin-1-ylethoxy)isoquinolin-2(1H)-yl]phenyl}-2-pyrrolidin-1-ylisonicotinamide]: the IC50 is 2 nM.

`Cc1ccc(NC(=O)c2ccnc(-c3cccs3)c2)cc1-n1ccc2ccc(OCCN(C)C)cc2c1=O` [Example 9, N-{3-[7-[2-(dimethylamino)ethoxy]-1-oxoisoquinolin-2(1H)-yl]-4-methylphenyl}-2-(2-thienyl)isonicotinamide]: the half-inhibitory concentration (IC50) is 0.2 nM.

Turning to `Cc1ccc(NC(=O)c2cccc(-c3cnco3)c2)cc1-n1ccc2ccc(OCCCN3CCCC3)cc2c1=O` [Example 11, N-{4-Methyl-3-[1-oxo-7-(3-pyrrolidin-1-ylpropoxy)isoquinolin-2(1H)-yl]phenyl}-3-(1,3-oxazol-5-yl)benzamide], the half-maximal inhibitory concentration (IC50) was 0.794 nM.
